# Test results: patent US20090099187A1, “Novel 8-Sulfonyl-3 Aminosubstituted Chroman or Tetrahydronaphtalene Derivatives Modulating the 5HT6 Receptor” (AstraZeneca AB, priority 2005, published 2009)
# Target: rat striatal 5HT6 receptors (Rattus norvegicus, UniProt P31388)
# Sequence (P31388 whole entry): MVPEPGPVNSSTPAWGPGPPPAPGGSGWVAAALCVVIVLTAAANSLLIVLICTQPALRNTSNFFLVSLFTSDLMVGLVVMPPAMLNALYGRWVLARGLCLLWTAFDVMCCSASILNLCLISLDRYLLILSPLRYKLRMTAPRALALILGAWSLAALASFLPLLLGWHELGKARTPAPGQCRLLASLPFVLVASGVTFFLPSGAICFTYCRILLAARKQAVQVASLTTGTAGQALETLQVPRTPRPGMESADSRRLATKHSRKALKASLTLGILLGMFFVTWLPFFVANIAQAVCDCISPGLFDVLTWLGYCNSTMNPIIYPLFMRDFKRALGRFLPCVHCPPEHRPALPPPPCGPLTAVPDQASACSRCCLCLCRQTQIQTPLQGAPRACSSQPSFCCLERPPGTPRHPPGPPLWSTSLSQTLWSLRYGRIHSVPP
# Protocol: Striatal tissue from adult rats (Sprague-Dawley, 320-370 g, B & K Sweden) were dissected out, weighed and homogenized in buffer containing 50 mM Tris-HCl, 4 mM MgCl2, 1 mM EDTA, 10 μM pargyline and protease inhibitor (Complete, Roche Diagnostics) pH 7.4 using an Ultra-Turrax T8 (IKA Labortechnik, Germany). The tissue homogenate was centrifuged at 48 000×g for 10 min and the pellet was resuspended and recentrifuged as above. The final membranes were diluted in buffer to a concentration of 60 mg original wet weight (w.w.) per ml and stored in aliquots at −70° C.
# Non-specific binding was determined in the presence of 10 μM methiothepin. In the competition experiments 0.8-2 mg w.w. per tube and a radioligand concentration of 0.5-1 nM were used with 7 concentrations of the competing drug pre-dissolved in DMSO and diluted in buffer. The assays were incubated for 1-3 hours at room temperature, and terminated by rapid filtration through Whatman GF/B filters pretreated with 0.3% polyethyleneimine using a Brandel cell harvester. The radioactivity was determined in a Packard Tri-Carb 2900TR liquid scintillation counter. Data were analyzed by non-linear regression analyses using PRISM 4.00 (GraphPad Software Inc., San Diego, Calif.).
row,Compound,Ki [nM]
1,"COc1ccc(Cl)cc1NS(=O)(=O)c1ccc(OC)c2c1CC[C@H](N(C)C)C2 [Example 1, (6S)—N-(5-Chloro-2-methoxyphenyl)-6-(dimethylamino)-4-methoxy-5,6,7,8-tetrahydronaphthalene-1-sulfonamide]",1.7 ± 0.6
2,"COc1ccc(S(=O)(=O)Nc2ccccn2)c2c1C[C@@H](N(C)C)CC2 [Example 18, (6S)-6-(Dimethylamino)-4-methoxy-N-pyridin-2-yl-5,6,7,8-tetrahydronaphthalene-1-sulfonamide]",17 ± 5
3,"COc1ccc(S(=O)(=O)N2CCc3ccccc3C2)c2c1C[C@@H](N(C)C)CC2 [Example 21, [5-(3,4-Dihydro-1H-isoquinoline-2-sulfonyl)-8-methoxy-1,2,3,4-tetrahydro-naphthalen-2-yl]-dimethyl-amine]",4.2 ± 1.4
4,"CN[C@H]1CCc2c(S(=O)(=O)Nc3ccc(Cl)cc3)ccc(OC)c2C1 [Example 25, (6S)—N-(4-chlorophenyl)-4-methoxy-6-(methylamino)-5,6,7,8-tetrahydronaphthalene-1-sulfonamide]",12 ± 4.2
5,"COc1ccc(Cl)cc1NS(=O)(=O)c1ccc(OC)c2c1OC[C@H](N(C)C)C2 [Example 60, (3R)—N-(5-Chloro-2-methoxyphenyl)-3-(dimethylamino)-5-methoxychromane-8-sulfonamide]",2.3 ± 1.3
6,"COc1ccc(S(=O)(=O)Nc2cc(Cl)cc(Cl)c2)c2c1C[C@@H](N1CCCC1)CO2 [Example 69, (3R)—N-(3,5-Dichlorophenyl)-5-methoxy-3-pyrrolidin-1-ylchromane-8-sulfonamide]",27 ± 16
7,"CN[C@H]1COc2c(S(=O)(=O)Nc3ccccc3)ccc(OC)c2C1 [Example 71, (3R)-5-Methoxy-3-(methylamino)-N-phenylchromane-8-sulfonamide]",30 ± 7
8,"CCc1ccc(S(=O)(=O)Nc2ccc(F)c(Cl)c2)c2c1C[C@@H](N(C)C)CO2 [Example 72, (3R)—N-(3-Chloro-4-fluorophenyl)-3-(dimethylamino)-5-ethylchromane-8-sulfonamide]",290 ± 50
